According to PMC8657848, “Developmental Toxicity and Biotransformation of Two Anti-Epileptics in Zebrafish Embryos and Early Larvae” (International Journal of Molecular Sciences, 2021):
Like-named read-outs stand apart in the source and are kept apart here.

Key:
[1] = test system: zebrafish embryos and larvae; experiment: Morphological evaluation of zebrafish embryos/larvae exposed from 5¼ to 120 hpf; conditions: in vivo
Procedure: Each experiment was performed in two biological replicates (n = 2, 20 embryos/replicate) and consisted of a medium control group (EMS), solvent control group(s) (EMS + 0.5% DMSO and/or EMS + 1% DMSO) and four dose groups. […] Embryos were reared until they reached the desired developmental stage, under the same environmental conditions as the adults (28.5 °C ± 0.3 °C with a 14/10 h light/dark cycle) in the incubator (TIN-IN35, Phoenix instrument, Garbsen, Germany).
For the metabolites, E-CBZ (≥98% purity, CAS number: 36507-30-9, Supelco, Merck, Darmstadt, Germany) and HPPH (98% purity, CAS number: 2784-27-2, Sigma-Aldrich®, Merck, Darmstadt, Germany), we only selected one high concentration, 250 µM (see Supplementary Table S1). […] A higher percentage of DMSO was used for E-CBZ for the optimum dissolution of E-CBZ in EMS. Immediately after the selection (see Section 4.1), twenty embryos were randomly distributed in each control and test group. Embryos were exposed at the latest at 5 hpf in a final volume of 300 µL medium at a density of a fish per well.
For each biological replicate (n = 2), zebrafish embryos were morphologically investigated at 5¼, 10, 24, 48, 72, 96 and 120 hpf (Figure 9) using an Olympus CKX41 microscope with an Olympus U-TV0.5XC-3 lighting and an Olympys 4x/0.16 Uplan APO microscope objective (Shinjuku, Tokyo, Japon) to follow the developmental stages described by Kimmel et al.. The 5¼- and 10-hpf time points served as control steps to identify unfertilized or coagulated eggs that were included unwittingly to the experiment and referenced as coagulated in the 24-hpf morphological sheet (see Supplementary Figure S3). A series of morphological parameters were explored, adapted from Nagel et al., depending on the different time points of interest and described previously by our group (see Supplementary Figure S3). All parameters were scored 0 if normal and 1 if malformed. This binary scale was used to facilitate the scoring and no gradation of the severity of the endpoints was evaluated in this study.

[2] = Quantification of compound in stock and culture medium relative to nominal concentration (LC-MS); format: physicochemical; conditions: for Percentage of quantified compound concentration relatively to the nominal concentration: CBZ–E-CBZ
Procedure: The control and test mediums were also kept in the same incubator until the last time point of the experiment. The embryo media were renewed every 48 h, to avoid medium acidification and oxygen deprivation. At each medium change and at the last time point of the experiment (Figure 9), the media exposed to the embryos were pooled and kept at −80 °C for further use (n = 3). Moreover, samples from the stock solutions kept at 28.5 °C ± 0.3 °C were also taken at 0 and 120 hpf (n = 3), whereas samples were only taken at 96 hpf for the metabolites medium (E-CBZ and HPPH).

[3] = Microsomal incubation with CBZ and PHE, adult zebrafish liver microsomes; format: in vitro ADME, Danio rerio; conditions: data not shown
zebrafish embryos = conditions: cited from earlier work; for Embryos affected, combining teratogenic and lethal effects: after three days of exposure
[4] = zebrafish (Danio rerio), 120 hpf, 85 µM
[5] = zebrafish (Danio rerio), 120 hpf, 250 µM
[6] = zebrafish (Danio rerio), 120 hpf, 31.25 µM

Q: Which “Teratogenicity in zebrafish (conclusion from morphological and analytical assessment)” value [1] does the source give for `NC(=O)N1c2ccccc2C=Cc2ccccc21` [CBZ, carbamazepine] here?
A: The value was “teratogens”.

Q: What about the Coagulation [1, 4] of the same compound?
A: Its Coagulation is 2/20.

Q: And the “Deviation Tail Curve” value [1, 4]?
A: Its value is 1/18.

Q: What about the “Malformation Head Deviation Eye” value [1, 4] of the same compound?
A: The value was 1/18.

Q: What about the “Malformation Head Deviation Mouth” value [1, 4] of the same compound?
A: Its value is 2/18.

Q: And the “Malformation Head Deviation Shape Head” value [1, 4]?
A: The value was 3/18.

Q: And the “Deviation Tail Curve” value [1, 5]?
A: Its value is 2/20.

Q: What about the “Malformation Head Deviation Mouth” value [1, 5] of the same compound?
A: The value was 3/20.

Q: And the “Oedema Yolk” value [1, 5]?
A: The value was 3/20.

Q: What about the “Percentage of quantified compound concentration relatively to the nominal concentration” value ([2]; Culture medium exposed to embryos/larvae, nominal 31.25 µM, 48 hpf) of the same compound?
A: The value was 95.4 ± 16.2%.

Q: What about the “Percentage of quantified compound concentration relatively to the nominal concentration” value ([2]; Culture medium, nominal 31.25 µM, 96 hpf) of the same compound?
A: Its value is 101.2 ± 21.7%.

Q: What about the “Percentage of quantified compound concentration relatively to the nominal concentration” value ([2]; Culture medium, nominal 31.25 µM, 120 hpf) of the same compound?
A: Its value is 109.6 ± 5.4%.

Q: And the “Percentage of quantified compound concentration relatively to the nominal concentration” value ([2]; Culture medium, nominal 85 µM, 48 hpf)?
A: The value was 110.0 ± 4.8%.

Q: And the “Percentage of quantified compound concentration relatively to the nominal concentration” value ([2]; Culture medium, nominal 85 µM, 96 hpf)?
A: Its value is 116.8 ± 4.7%.

Q: What about the “Percentage of quantified compound concentration relatively to the nominal concentration” value ([2]; Culture medium, nominal 85 µM, 120 hpf) of the same compound?
A: Its value is 113.9 ± 4.5%.

Q: And the “Percentage of quantified compound concentration relatively to the nominal concentration” value ([2]; Culture medium, nominal 250 µM, 48 hpf)?
A: Its value is 113.4 ± 14.1%.

Q: And the “Percentage of quantified compound concentration relatively to the nominal concentration” value ([2]; Culture medium, nominal 250 µM, 96 hpf)?
A: The value was 114.2 ± 2.6%.

Q: And the “Percentage of quantified compound concentration relatively to the nominal concentration” value ([2]; Culture medium, nominal 250 µM, 120 hpf)?
A: Its value is 111.5 ± 2.6%.

Q: And the “Percentage of quantified compound concentration relatively to the nominal concentration” value ([2]; Stock, nominal 31.25 µM, 0 hpf, average of three replicates)?
A: The value was 95.6 ± 2.0%.

Q: And the “Percentage of quantified compound concentration relatively to the nominal concentration” value ([2]; Stock, nominal 31.25 µM, 120 hpf)?
A: The value was 101.6 ± 7.7%.

Q: What about the “Percentage of quantified compound concentration relatively to the nominal concentration” value ([2]; Stock, nominal 85 µM, 0 hpf) of the same compound?
A: The value was 81.7 ± 18.7%.

Q: And the “Percentage of quantified compound concentration relatively to the nominal concentration” value ([2]; Stock, nominal 85 µM, 120 hpf)?
A: The value was 90.4 ± 6.6%.

Q: What about the “Percentage of quantified compound concentration relatively to the nominal concentration” value ([2]; Stock, nominal 250 µM, 0 hpf) of the same compound?
A: The value was 92.1 ± 5.3%.

Q: What about the “Percentage of quantified compound concentration relatively to the nominal concentration” value ([2]; Stock, nominal 250 µM, 120 hpf) of the same compound?
A: The value was 98.4 ± 4.6%.

Q: What about the “Decrease of parent compound after 240 min (pilot investigation)” value [3] of the same compound?
A: Its value is “no changes”.

Q: And the “Embryos affected, combining teratogenic and lethal effects” value (shortened to “Embryos affected”) (zebrafish embryos; 31.25 µM)?
A: The value was “less than 20%”.

Q: What about the “Embryos affected” value (zebrafish embryos; 250 µM) of the same compound?
A: The value was “around 50%”.

Q: And the “Percentage of larvae affected at 72 hpf” value (zebrafish embryos; 250 µM)?
A: Its value is 48.3 ± 11.5%.

Q: With `O=C1NC(=O)C(c2ccccc2)(c2ccccc2)N1` [PHE, phenytoin] as the compound, how does the “Teratogenicity in zebrafish (conclusion from morphological and analytical assessment)” value [1] read?
A: Its value is “teratogens”.

Q: And the “Deviation Tail Curve” value [1, 6]?
A: Its value is 1/20.

Q: And the “Malformation Head Deviation Eye” value [1, 6]?
A: Its value is 2/20.

Q: And the “Deviation Pigmentation” value [1, 4]?
A: Its value is 2/20.

Q: What about the “Deviation Tail Elbow” value [1, 4] of the same compound?
A: Its value is 1/20.

Q: What about the “Deviation Tail Tissue Deviation” value [1, 4] of the same compound?
A: Its value is 2/20.

Q: What about the “Deviation Tail Elbow” value [1, 5] of the same compound?
A: Its value is 2/20.

Q: And the “Deviation Tail Tissue Deviation” value [1, 5]?
A: The value was 1/20.

Q: And the “No Hatching” value [1, 5]?
A: Its value is 1/20.

Q: And the “Oedema Head” value [1, 5]?
A: Its value is 1/20.

Q: And the “Oedema Pericardium” value [1, 5]?
A: Its value is 1/20.

Q: And the “Oedema Yolk” value [1, 5]?
A: The value was 1/20.

Q: What about the “Quantified concentration in culture medium lower than the nominal concentration” value ([2]; 31.25 µM, stable over time) of the same compound?
A: The value was 20%.

Q: And the “Quantified concentration lower than the nominal concentration” value ([2]; 85 µM, culture medium at 96 and 120 hpf and stock medium at 120 hpf)?
A: Its value is “around 35%”.

Q: What about the “Quantified concentration lower than the expected concentration” value ([2]; 85 µM, stock medium at 0 hpf and culture medium at 48 hpf) of the same compound?
A: The value was “around 20%”.

Q: And the “Quantified concentration as percentage of the nominal concentration” value ([2]; 250 µM, stock and culture medium, all time points)?
A: Its value is at most 45%.

Q: And the “Dissolution / precipitation in EMS” value ([2]; visually observed in the stock medium for 85 and 250 µM)?
A: The value was “did not dissolve properly in the EMS and/or precipitated in EMS”.

Q: What about the “Decrease of parent compound after 240 min (pilot investigation)” value [3] of the same compound?
A: Its value is “No decrease”.

Q: What about the “Embryos affected” value (zebrafish embryos; 31.25 µM) of the same compound?
A: The value was “less than 20%”.

Q: What about the “Embryos affected” value (zebrafish embryos; 250 µM) of the same compound?
A: The value was “around 50%”.

Q: What about the “Percentage of larvae affected at 72 hpf” value (zebrafish embryos; 250 µM) of the same compound?
A: The value was 45.0 ± 21.8%.
